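Assay format: 96-well plates, 48-hour exposure. GI50: concentration for 50% inhibition of growth.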 Calls of active or inactive are those of the source. Rule as the data show it: active = GI50 up to about 1.1 µM and inactive = higher.
Key:
Assay in all cases: NCI anticancer screen, dose series, 48 h
DU-145 = test system: DU-145
HT-29 = test system: HT-29
SK-OV-3 = test system: SK-OV-3
NCI-H23 = test system: NCI-H23
MDA-N = test system: MDA-N
RXF 393 = test system: RXF 393
ACHN = test system: ACHN
KM12 = test system: KM12
SF-268 = test system: SF-268
UACC-257 = test system: UACC-257
U-251 = test system: U-251
SF-539 = test system: SF-539
CCRF-CEM = test system: CCRF-CEM
HOP-92 = test system: HOP-92
SF-295 = test system: SF-295
NCI-H226 = test system: NCI-H226
IGROV-1 = test system: IGROV-1
A549 = test system: A549
OVCAR-8 = test system: OVCAR-8
HOP-62 = test system: HOP-62
SK-MEL-2 = test system: SK-MEL-2
SR = test system: SR
K562 = test system: K562
NCI-H460 = test system: NCI-H460
UACC-62 = test system: UACC-62
RPMI-8226 = test system: RPMI-8226
UO-31 = test system: UO-31
786-0 = test system: 786-0
NCI-H522 = test system: NCI-H522
M14 = test system: M14
TK-10 = test system: TK-10
Hs-578T = test system: Hs-578T
MDA-MB-435 = test system: MDA-MB-435
OVCAR-5 = test system: OVCAR-5
Malme-3M = test system: Malme-3M
MCF7 = test system: MCF7
NCI/ADR-RES = test system: NCI/ADR-RES
COLO 205 = test system: COLO 205
SNB-75 = test system: SNB-75
OVCAR-3 = test system: OVCAR-3
HCT-15 = test system: HCT-15
HCT-116 = test system: HCT-116
MDA-MB-231 = test system: MDA-MB-231
BT-549 = test system: BT-549
OVCAR-4 = test system: OVCAR-4
EKVX = test system: EKVX
SK-MEL-5 = test system: SK-MEL-5
SW-620 = test system: SW-620
CAKI-1 = test system: CAKI-1
SK-MEL-28 = test system: SK-MEL-28
PC-3 = test system: PC-3
A498 = test system: A498
SNB-19 = test system: SNB-19
HCC 2998 = test system: HCC 2998
MOLT-4 = test system: MOLT-4
SN12C = test system: SN12C
LOX IMVI = test system: LOX IMVI
HL-60 = test system: HL-60

With `CCCc1[nH]c2ccccc2c1-c1c(CCC)[nH]c2ccccc12` the GI50 (DU-145) was 11.3 µM (inactive), the GI50 (HT-29) was 8.61 µM (inactive) and the GI50 (SK-OV-3) was 24.1 µM (inactive). For the same molecule, the GI50 (NCI-H23) was 8.05 µM (inactive), the GI50 (MDA-N) was 7.96 µM (inactive) and the GI50 (RXF 393) was 20 µM (inactive). For the same molecule, the GI50 (ACHN) was 16.9 µM (inactive), the GI50 (KM12) was 16.6 µM (inactive) and the GI50 (SF-268) was 9.62 µM (inactive). For the same molecule, the GI50 (UACC-257) was 18.1 µM (inactive), the GI50 (U-251) was 6.71 µM (inactive) and the GI50 (SF-539) was 8.36 µM (inactive). The GI50 (CCRF-CEM) was 8.26 µM (inactive), the GI50 (HOP-92) was 19.5 µM (inactive) and the GI50 (SF-295) was 15.7 µM (inactive). The GI50 (NCI-H226) was 19.2 µM (inactive), the GI50 (IGROV-1) was 12 µM (inactive) and the GI50 (A549) was 27.7 µM (inactive). The GI50 (OVCAR-8) was 3.35 µM (inactive), the GI50 (HOP-62) was 16.9 µM (inactive) and the GI50 (SK-MEL-2) was 14.2 µM (inactive). For the same molecule, the GI50 (SR) was 19 µM (inactive), the GI50 (K562) was 7.74 µM (inactive) and the GI50 (NCI-H460) was 23.9 µM (inactive). The GI50 (UACC-62) was 13.3 µM (inactive), the GI50 (RPMI-8226) was 19.7 µM (inactive) and the GI50 (UO-31) was 16.7 µM (inactive). For the same molecule, the GI50 (786-0) was 15.5 µM (inactive), the GI50 (NCI-H522) was 17.1 µM (inactive) and the GI50 (M14) was 12.6 µM (inactive). For the same molecule, the GI50 (TK-10) was 21.6 µM (inactive), the GI50 (Hs-578T) was 6.95 µM (inactive) and the GI50 (MDA-MB-435) was 11.9 µM (inactive). For the same molecule, the GI50 (OVCAR-5) was 16.9 µM (inactive), the GI50 (Malme-3M) was 16 µM (inactive) and the GI50 (MCF7) was 4.66 µM (inactive). The GI50 (NCI/ADR-RES) was 10.1 µM (inactive), the GI50 (COLO 205) was 17.9 µM (inactive) and the GI50 (SNB-75) was 19.4 µM (inactive). For the same molecule, the GI50 (OVCAR-3) was 8.2 µM (inactive), the GI50 (HCT-15) was 3.62 µM and the GI50 (HCT-116) was 4.6 µM (inactive). For the same molecule, the GI50 (MDA-MB-231) was 15.3 µM (inactive), the GI50 (BT-549) was 13.9 µM (inactive) and the GI50 (OVCAR-4) was 21.5 µM (inactive). For the same molecule, the GI50 (EKVX) was 16.8 µM (inactive), the GI50 (SK-MEL-5) was 10.2 µM (inactive) and the GI50 (SW-620) was 6.76 µM (inactive). The GI50 (CAKI-1) was 18.6 µM (inactive), the GI50 (SK-MEL-28) was 7.46 µM (inactive) and the GI50 (PC-3) was 5.42 µM (inactive). For the same molecule, the GI50 (A498) was > 86.1 µM (inactive), the GI50 (SNB-19) was 13.5 µM (inactive) and the GI50 (HCC 2998) was 22.9 µM (inactive). The GI50 (MOLT-4) was 30.1 µM (inactive), the GI50 (SN12C) was 10.1 µM (inactive) and the GI50 (LOX IMVI) was 4.35 µM (inactive).
`O=C1NC(=O)C(CC2CCCCCCCCCCC2=O)C(=O)N1` (stereo unspecified) was tested, and the GI50 (DU-145) was > 100 µM (inactive), the GI50 (HT-29) was 74 µM (inactive) and the GI50 (SK-OV-3) was > 100 µM (inactive). For the same molecule, the GI50 (NCI-H23) was > 100 µM (inactive), the GI50 (MDA-N) was > 100 µM (inactive) and the GI50 (RXF 393) was > 100 µM (inactive). The GI50 (ACHN) was > 100 µM (inactive), the GI50 (KM12) was > 100 µM (inactive) and the GI50 (SF-268) was > 100 µM (inactive). For the same molecule, the GI50 (UACC-257) was > 100 µM (inactive), the GI50 (U-251) was > 100 µM (inactive) and the GI50 (SF-539) was > 100 µM (inactive). For the same molecule, the GI50 (CCRF-CEM) was 1.2 µM (inactive), the GI50 (HOP-92) was > 100 µM (inactive) and the GI50 (SF-295) was > 100 µM (inactive). The GI50 (NCI-H226) was > 100 µM (inactive), the GI50 (IGROV-1) was > 100 µM (inactive) and the GI50 (A549) was > 100 µM (inactive). For the same molecule, the GI50 (OVCAR-8) was > 100 µM (inactive), the GI50 (HOP-62) was > 100 µM (inactive) and the GI50 (SK-MEL-2) was > 100 µM (inactive). The GI50 (SR) was 0.041 µM (active), the GI50 (NCI-H460) was > 100 µM (inactive) and the GI50 (UACC-62) was > 100 µM (inactive). The GI50 (UO-31) was 74 µM (inactive), the GI50 (786-0) was > 100 µM (inactive) and the GI50 (NCI-H522) was > 100 µM (inactive). For the same molecule, the GI50 (M14) was > 100 µM (inactive), the GI50 (TK-10) was > 100 µM (inactive) and the GI50 (Hs-578T) was > 100 µM (inactive). For the same molecule, the GI50 (MDA-MB-435) was > 100 µM (inactive), the GI50 (OVCAR-5) was > 100 µM (inactive) and the GI50 (MCF7) was > 100 µM (inactive). For the same molecule, the GI50 (NCI/ADR-RES) was > 100 µM (inactive), the GI50 (COLO 205) was > 100 µM (inactive) and the GI50 (SNB-75) was > 100 µM (inactive). The GI50 (OVCAR-3) was > 100 µM (inactive), the GI50 (HCT-15) was > 100 µM and the GI50 (HCT-116) was > 100 µM (inactive). For the same molecule, the GI50 (MDA-MB-231) was > 100 µM (inactive), the GI50 (BT-549) was > 100 µM (inactive) and the GI50 (OVCAR-4) was > 100 µM (inactive). For the same molecule, the GI50 (EKVX) was > 100 µM (inactive), the GI50 (SK-MEL-5) was > 100 µM (inactive) and the GI50 (SW-620) was > 100 µM (inactive). The GI50 (CAKI-1) was > 100 µM (inactive), the GI50 (SK-MEL-28) was > 100 µM (inactive) and the GI50 (PC-3) was > 100 µM (inactive). The GI50 (SNB-19) was > 100 µM (inactive), the GI50 (HCC 2998) was > 100 µM (inactive) and the GI50 (MOLT-4) was 39.6 µM (inactive). For the same molecule, the GI50 (HL-60) was 4.94 µM (inactive), the GI50 (SN12C) was > 100 µM (inactive) and the GI50 (LOX IMVI) was > 100 µM (inactive).
